Source: US12611406B2, “Oxopiperazine derivatives for the treatment of cancer” (Inthera Bioscience AG, priority 2020, dated 2026)
Entries after “also recorded” stand apart in the source; their conditions may differ.

What was measured:
[1] = tested on: PC cells; experiment: Anti-proliferative assay, five day treatment, CellTiter-Glo; type: cell-based; conditions: growth inhibition
From the text: The amount of cells remaining at the end of the treatment was estimated by CellTiter-Glo (Promega).
Many of the cell lines in this subset had deficiencies in the Rb1 and p53 tumor suppressor pathways.

[2] = tested on: A549 NSCLC cells; experiment: Cell cycle FACS analysis; type: cell-based; conditions: A549, wild-type Rb and p53; 20 or 200 nM, 24 h
Method: Cell cycle phase distribution in control (C) cells or cells treated at 20 or 200 nM Compound 1 for 24 hours (24 h) determined by fluorescence activated cell sorting (FACS) analysis, and detection of histone H2A variant H2A.X phosphorylation (γH2A.X, also referred to herein as gamma H2A.X or γH2A.X) by Western blot as DNA damage biomarker.
In FIG. 3A, protein amounts were normalized using total protein load with ImageLab 6.0 Software (BioRad).

[3] = tested on: p300; experiment: Western blot of p53 acetylated by p300 on K382 in LNCaP cells; type: cell-based
Method: Top panel: Cell cycle distribution in LNCap cells treated with siRNA (2 bars on the right) in comparison to control LNCaP cells without siRNA treatment (2 bars in the middle), in the absence (−) or presence (+) of Compound 1 for 24 h at the indicated concentration. For comparison, DU-145 cells harboring a combined Rb1 and p53 loss-of-function are included (2 bars on the left). Lower panel: Western blot analysis according to the same experimental conditions as given for the top panel.

[4] = tested on: PR6511; experiment: PR6511 mouse PDX prostate cancer model, daily oral; type: in vivo
Method: PR6511 represents a model which was not responsive any more to enzalutamide treatment. The dose in the 10 mg/kg group was reduced to 3 mg/kg from day 51 onwards. […] QD: once daily treatment. po: per os.
Due to weight loss, animals of the 10 mg/kg group received a reduced dose of 3 mg/kg on study days 51 to 57.

[5] = tested on: DU-145; experiment: DU-145 CDX mouse model; type: in vivo; conditions: once weekly 60 mg/kg/day as 30 mg/kg BID, 4 weeks; p <0.001
From the text: Values larger than 100% indicate tumor regression.

[6] = Single dose oral and intravenous PK in CD-1 mice (mesylate salt), blood; type: in vivo; parameters: AUC(0-t) / AUC(0-inf): unit not given here; conditions: male, CD-1, mouse, whole blood
Method: These studies analyzed the PK profile of Compound 1 following a single oral gavage or single intravenous dose to CD-1 mice.
Compound 1 (mesylate salt) was administered to four groups of male mice (n=4/group) as a single oral (po) gavage administration at dose levels of 5, 10, 20, and 50 mg/kg/adm or as single intravenous (IV) dose at 5 and 50 mg/kg/adm. The vehicle was 1% methylcellulose with 0.1% Tween-80 in study AMP800 and 5% dextrose in water in study AMP799. Blood samples were collected at pre-dose, 10 minutes, 40 minutes, 2, 4, and 7 hours after administration for analysis of Compound 1 concentrations in blood by liquid chromatography—tandem mass spectroscopy (LC-MS/MS) and subsequent calculation of PK parameters.

[7] = 5 consecutive days oral toxicity study in CD-1 mice; type: in vivo; conditions: 30 mg/kg/day orally once daily for 5 consecutive days
Method: The toxicity of Compound 1 was assessed for several dosing regimens for CD-1 mice, Beagle dogs, and cynomolgus monkeys.

[8] = 28-day once weekly oral repeated-dose DRF TK study in Beagle dogs (mesylate salt), plasma; type: in vivo; conditions: for AUC / Cmax: both sexes, Beagle, dog, plasma, po
Method: The objective of the study was to determine the TK profile of Compound 1 following 4 weekly oral administrations to Beagle dog and to assess reversibility of any changes following a 13-day recovery period.
The test item Compound 1 (mesylate salt) was administered in 4 weekly doses by oral gavage to groups of Beagle dogs (n=2/sex/group) at dose levels of 10, 15, and 20 mg/kg bodyweight per week. A suspension of 0.5% methylcellulose (w/v) in sterile water served as vehicle. Blood samples for PK analysis were collected for each dosing day (Day 1, 8, 15, and 22) at pre-dose, 0.25, 0.5, 1, 2, 4, 6, 8, 12, and 24 hours after administration.
Total plasma concentrations of Compound 1 were analyzed using a qualified LC-MS/MS method.
Dosing at 15 mg/kg/adm was limited to 2 weekly doses, since animals were subjected to necropsy investigation 3 days after the second dose (Day 8) in order to investigate possible macroscopic changes during the treatment period. n.d.: not determined. AUC parameters were calculated using GraphPad Prism version 9.

[9] = 10 mg/kg (3 mg/kg on days 51-57) once daily
[10] = 10 mg/kg, 10 mg/kg weekly, Day 1
[11] = 10 mg/kg, 10 mg/kg weekly, Day 8
[12] = 10 mg/kg, 10 mg/kg weekly, Day 15
[13] = 10 mg/kg, 10 mg/kg weekly, Day 22
[14] = 15 mg/kg, 15 mg/kg weekly, Day 1
[15] = 15 mg/kg, 15 mg/kg weekly, Day 8

CC(C)C[C@@H]1NCCN([C@@H](CC(C)C)C(=O)N2CCC3(C[C@@H]2C)OCC(CN2CCCC2)CO3)C1=O (stereo partly drawn) [Compound 1, (S)-3-isobutyl-1-((S)-4-methyl-1-((S)-8-methyl-3-(pyrrolidin-1-ylmethyl)-1,5-dioxa-9-azaspiro[5.5]undecan-9-yl)-1-oxopentan-2-yl)piperazin-2-one]
IC50 values [1]: nanomolar range
cell cycle response [2]: arrested in G1-phase
amount of p53 acetylated by p300 on K382 ([3]; control LNCaP cells): increased
HAT/KAT activity of p300 ([3]; inferred from p53 K382 acetylation): not inhibited
complete responders ([4]; 6 mg/kg once daily): 3/8
partial responder ([4]; 6 mg/kg once daily): 2/8
tumor-free survivors ([4]; 6 mg/kg once daily): 3/8
complete responders [4, 9]: 4/8
partial responders [4, 9]: 2/8
tumor-free survivors [4, 9]: 3/8
tumor response ([4]; 10 mg/kg for approx. 8-10 days, then breaks/3 mg/kg days 51-57): full tumor regressions
tumor re-growth ([4]; 3 weeks after end of treatment, fully regressed tumors): no re-growth of tumors
tumor response ([4]; 6 or 10 mg/kg daily oral, study days 38-57): substantial tumor regressions up to erradication of tumors
PSA in blood ([4]; PR6511): effective PSA reduction
Tumor growth inhibition [5]: 72 (<0.001)/**4 weeks %
AUC(0-inf) ([6]; intravenous 5 mg/kg): 1.11
AUC(0-t) ([6]; intravenous 5 mg/kg): 1.03
Tmax ([6]; intravenous 5 mg/kg): 0.17 h
half-life ([6]; intravenous 5 mg/kg): 2.3 h
AUC(0-inf) ([6]; intravenous 50 mg/kg): 13
AUC(0-t) ([6]; intravenous 50 mg/kg): 12.2
Tmax ([6]; intravenous 50 mg/kg): 0.17 h
half-life ([6]; intravenous 50 mg/kg): 1.6 h
AUC(0-inf) ([6]; oral 5 mg/kg): 0.246
AUC(0-t) ([6]; oral 5 mg/kg): 0.179
Tmax ([6]; oral 5 mg/kg): 0.17 h
half-life ([6]; oral 5 mg/kg): 4 h
AUC(0-inf) ([6]; oral 10 mg/kg): 0.471
AUC(0-t) ([6]; oral 10 mg/kg): 0.31
Tmax ([6]; oral 10 mg/kg): 0.17 h
half-life ([6]; oral 10 mg/kg): 5.6 h
AUC(0-inf) ([6]; oral 20 mg/kg): 2.49
AUC(0-t) ([6]; oral 20 mg/kg): 1.97
Tmax ([6]; oral 20 mg/kg): 0.17 h
half-life ([6]; oral 20 mg/kg): 3.2 h
AUC(0-inf) ([6]; oral 50 mg/kg): 3.38
AUC(0-t) ([6]; oral 50 mg/kg): 2.88
Tmax ([6]; oral 50 mg/kg): 0.67 h
half-life ([6]; oral 50 mg/kg): 2.6 h
tolerability [7]: well-tolerated
clinical signs ([8]; 15 mg/kg/adm, limited to 2 oral doses (Days 1 and 8)): reduced food and water intake
AUC [8, 10]: 1720 ng·h/mL
Cmax [8, 10]: 536 ng/mL
AUC [8, 11]: 1590 ng·h/mL
Cmax [8, 11]: 512 ng/mL
AUC [8, 12]: 1660 ng·h/mL
Cmax [8, 12]: 497 ng/mL
AUC [8, 13]: 1170 ng·h/mL
Cmax [8, 13]: 360 ng/mL
AUC [8, 14]: 2630 ng·h/mL
Cmax [8, 14]: 752 ng/mL
AUC [8, 15]: 2300 ng·h/mL
Cmax [8, 15]: 506 ng/mL
AUC ([8]; 20 mg/kg, Day 1): 3010 ng·h/mL
Cmax ([8]; 20 mg/kg, Day 1): 994 ng/mL
tolerability ([8]; single oral administration of 20 mg/kg/adm, 20 mg/kg): serious adverse event (SAE) on day 5; also recorded: not tolerated in one female Beagle dog
tolerability ([8]; weekly oral for 4 consecutive weeks at 10 mg/kg/adm): tolerated
